Experimental findings from patent US20250011265A1, “COMPOSITIONS AND METHODS FOR PRODUCTION OF ANTIMICROBIAL AGENTS FROM BIO-RENEWABLE FEEDSTOCKS” (SOLUGEN, INC., priority 2022, published 2025) are described below.

≈ marks a conversion by molar mass, not a printed value.

Assay [1] concerns General Wild Strain Bacteria (Pseudomonas aeruginosa and Enterobacter aggolomerans). Briefly: Microtiter MIC study, general aerobic bacteria. Format: cell-based. The protocol: (§1) All three different heat incubated GDA samples were tested as antimicrobial agents with several different industrially relevant bacteria. The General Aerobic Bacteria isolated and used for this testing were identified as Pseudomonas aeruginosa and Enterobacter aggolomerans. Wild strain Sulfate Reducing Bacteria and Acid Producing Bacteria isolated from the produced fluids was also used. They were placed in a microtiter plate, where a high throughput test can be performed to determine MIC (minimum inhibitor concentration). Samples were tested at the following doses (1000, 500, 250, 125, 62.5, 31.2, 15.6, 7.8, 3.9, and 1.95 ppm) and concentration was calculated based on the initial GDA concentration (15 w/v %).
(§2) The antimicrobial testing results shown in FIG. 13 summarizes the MIC of each sample for different bacteria. The MIC is determined after 24 hours of incubation for the bacterial plates.

The subject of assay [2] is SRB (Sulfate Reducing Bacteria). The experiment in a line: Microtiter MIC study, sulfate reducing bacteria. Format: cell-based, Wild strain Sulfate Reducing Bacteria. To be noted: 24 hours incubation; concentration based on initial GDA concentration (15 w/v %). The protocol:
as §1, §2

Assay [3] relates to APB (Acid Producing Bacteria). The experiment in a line: Microtiter MIC study, acid producing bacteria. Format: cell-based. The following applies: 24 hours incubation; concentration based on initial GDA concentration (15 w/v %). Here is the method:
as §1, §2

In general, MIC refers to the least concentration at which growth counts as inhibited. High values mean weaker potency, low ones greater potency. For the compound `O=CCCCC=O` [Glutaraldehyde - 50%, Glutaraldehyde], the MIC in assay [1] (Pseudomonas aeruginosa, 24 hours incubation, concentration based on initial GDA concentration (15 w/v %)) came to 1000 µg/mL (≈ 9.99 mM); in assay [3], 500 µg/mL (≈ 4.99 mM). Moreover, in assay [2], the “MIC, SRB (Sulfate Reducing Bacteria)” value is 500 ppm.
For `Oc1ccc(O)c(O)c1O` (single isomer, unassigned) [1,2,3,4-tetrahydroxybenzene], in assay [1] (inferred from Sample C result, all three bacteria tested), the antimicrobial activity entry was “good antimicrobial activity”.
